From article PMC11242853, “The Antimicrobial Activity of Human Defensins at Physiological Non-Permeabilizing Concentrations Is Caused by the Inhibition of the Plasma Membrane H^+-ATPases” (International Journal of Molecular Sciences, 2024)
Where no end group is shown, it is not given here.

Columns and labels:
[1] = system: C. albicans cells; assay: Extracellular potassium measurement (K+-efflux, ICP-MS); assay type: cell-based, Candida albicans; details: Table 2; no reference given
Protocol: Potassium measurements were performed via inductively coupled plasma mass spectrometry using an Agilent 7700x ICP-MS (Agilent Technologies, Santa Clara, CA, USA). C. albicans cells were cultured in SDB for 16–20 h at 30 °C. The cells were then subcultured in the same media to the mid-logarithmic growth phase and rapidly washed in sterile, deionized, double-distilled water. The cells (10^7 cells/mL) were immediately incubated with the peptides (NPIC) for 90 min at 37 °C. The tubes were centrifuged at 1100× g for 10 min and the supernatants were collected and stored at 4 °C until analysis. The percentage of cytosolic potassium released from cell suspensions treated with nystatin (50 μM) was determined in positive control assays. Total cellular K^+-content (100% value) was measured in the supernatant of cell suspensions previously treated with 0.5% (v/v) HClO4 alone, heated for 1 h at 95 °C, and centrifuged to remove cell debris. Results are expressed as the percentage (means ± SD) of K^+-release relative to the total cellular K^+-content from duplicates of at least three independent assays.

[2] = system: C. albicans cells; assay: Oxygen consumption measurement (polarographic), C. albicans; assay type: cell-based, Candida albicans; details: after 30 min; defensins 2 x NPIC, human lactoferrin 20 μM, piericidin A 32 µM; preincubated 15 min at 37 °C; untreated cells 94% ± 2%; means ± SD, three experiments
Protocol: (§1) Oxygen consumption by C. albicans and P. aeruginosa cells was determined by polarographically using a biological oxygen monitor (dual digital-model 20; Rank Brothers Ltd., Cambridge, UK) at 25 °C. The apparatus consisted of a twin water-jacketed closed sample chamber, which enabled a control experiment to be conducted concurrently. The cells were grown to mid-log phase in SDB (C. albicans) or TSB (P. aeruginosa), washed twice in Tris buffer, and resuspended in the same buffer. Cell suspensions (approximately 10^7 cells/mL) were preincubated with defensins (2 x NPIC), human lactoferrin (20 μM), or piericidin A (32 μM) for 15 min at 37 °C. Oxygen consumption was recorded at 5-min intervals for a period of 30 min. Three independent experiments were performed, and the data are means ± SD.

[3] = system: P. aeruginosa cells; assay: Oxygen consumption measurement (polarographic), P. aeruginosa; assay type: cell-based, Pseudomonas aeruginosa; details: after 30 min; defensins 2 x NPIC, human lactoferrin 20 μM, piericidin A 32 µM; preincubated 15 min at 37 °C; untreated cells 83% ± 2%; means ± SD, three experiments
Protocol: as §1

[4] = system: Lactococcus lactis subsp. lactis (strain IL1403); assay: Antimicrobial spread-plate (CFU) killing assay, fermenting L. lactis; assay type: cell-based; details: fermentative conditions; range tested 0.062 to 2 µM; Tris buffer, 90 min at 37 °C
Protocol: Microbial susceptibility to the peptides was determined in a spread-plate assay as described previously. Briefly, cell suspensions (10^6 cells/mL) in Tris buffer (10 mM Tris-HCl, pH 7.4) were incubated for 90 min at 37 °C with 2-fold serial peptide dilutions. Peptide concentrations ranged from 0 to 2 μM. After incubation, the number of viable cells was determined by plating aliquots (100 μL) in duplicate on plates (SDA for C. albicans, TSA for P. aeruginosa, and M17G agarified medium for L. lactis) that had been dried for 30 min at room temperature in a laminar flow hood. Plates were incubated for 24–48 h at 30 °C (C. albicans and L. lactis) or 24 h at 37 °C (P. aeruginosa). Dilutions yielding 50–200 colonies were counted. Cell viability values, expressed as colony-forming units (CFUs), were calculated relative to the incubation without added peptides and represent the means ± standard deviation (SD) from duplicates of three independent experiments. For inhibition assays, unless otherwise noted, cell suspensions were preincubated (15 min at 37 °C) with the appropriate inhibitor prior to the addition of peptides, but the inhibitor was present throughout the incubation period with the peptide (90 min at 37 °C). Other specific experimental conditions are described as appropriate. […]

[5] = system: P. aeruginosa cells; assay: Permeability assay (propidium iodide uptake, flow cytometry), P. aeruginosa; assay type: cell-based, Pseudomonas aeruginosa; details: 90 min at 37 °C, Tris buffer, PI 1 µg/mL
Protocol: To determine whether the above microbicidal concentrations exert a permeabilizing effect on fungal and bacterial membranes, the influx of the fluorescent nucleic acid-binding dye propidium iodide (PI) in cells incubated with the peptides was assessed. In cells, dye uptake reflects membrane permeabilization, as PI itself cannot permeate through an intact phospholipid bilayer. […] To select an antimicrobial but non-permeabilizing concentration of each peptide for further assays, we defined as a non-permeabilizing inhibitory concentration (NPIC) the antimicrobial inhibitory concentration (≤10% viable cells) that permeabilized ≤ 10% of cells incubated (90 min at 37 °C) in buffer solution.

Substance | Partial K^+-efflux [1] | oxygen consumption percentage of C. albicans [2] | O2 consumption of P. aeruginosa [3] | calculated NPIC against fermenting L. lactis [4] | concentration showing permeabilizing activity (increase in intracellular PI), P. aeruginosa [5]
HNP-4: human α-defensin, UniProtKB P12838, 33 amino acids; purchased from PeptaNova (VCSCRLVFCRRTELRVGNCLIGGVSFTYCCTRV; ends and bridges not checked; cysteine pairing not given here; UniProt P12838 64-96, looked up) | Yes | 81% ± 3% | 75% ± 2% | – | –
HNP-1: human α-defensin, UniProtKB P59665, 30 amino acids, three disulfide bonds; purchased from PeptaNova | Yes | 87% ± 4% | 72% ± 2% | 0.125 µM | ≥ 0.5 µM
hBD-3: human β-defensin, UniProtKB Q5U7J2, 45 amino acids; purchased from PeptaNova (GIINTLQKYYCRVRGGRCAVLSCLPKEEQIGKCSTRGRKCCRRKK; Beta-defensin 103; UniProt P81534 23-67, looked up) | Yes | 79% ± 4% | 82% ± 4% | – | –
